Experiments:
Hex^RS ES cells [1] = experiment: ADE (H+C+) induction, two-step suspension (embryoid body) differentiation with serum day 0-2, flow cytometry for RS and Cxcr4; assay type: cell-based, mouse
Procedure: ADE was induced under serum-containing conditions using a 2-step protocol. ES cells were seeded onto non-coated 10 cm petri dishes (sterilin) at a density of 5×10^3 cells/ml in Glasgow minimum essential medium (G-MEM; GIBCO-BRL) supplemented with 10% fetal calf serum (FCS), 0.1 mM nonessential amino acids (GIBCO-BRL), 1 mM sodium pyruvate, 2 mM glutamine and 0.1 mM 2-mercaptoethanol (2ME). Following 2 days of culture the resulting embryoid bodies (EBs) were harvested by centrifugation at 500 rpm for 1 min and replated on 10 cm non-coated petri dishes at the same density in N2B27 culture medium (StemCellSciences) supplemented with 20 ng/ml activin A (R&D). The media was replaced 2 days later and then every 3 days for the duration of the experiment. For some experiments 20 ng/ml EGF, 10 ng/ml Bmp4, 20 ng/ml activin A (R&D), 1×10^−5M all-trans retinoic acid (Sigma) and 3 μM CHIR99021 (a gift from StemCellSciences) were added to the culture at the indicated timepoints.
(§1) FITC-conjugated rat anti-CD184 (CXCR4), FITC-conjugated rat anti-CD31 and FITC conjugated rat anti-CD45 were purchased from BD Pharmingen. EBs generated under various different differentiation conditions were dissociated by treatment with cell dissociation buffer (PBS based) (GIBCO-BRL). Cells were washed in PBS supplemented with 10% FCS (FB) and resuspended at a maximum density of 5×10^6 cells/ml. For surface staining 200 μl of cells were plated in a V shape 96 well polystyrene plate (Sterilin) in PBS supplemented with 1% serum of the species in which the antibody was manufactured. The FITC-conjugated antibody or a FITC-conjugated isotype control was added at a 1:100 dilution. Cells were incubated in the dark for 20 mins, washed 3 times with FB and resuspended in FB supplemented with Topro3-iodide (Invitrogen) to exclude dead cell from the analysis. Cells were analysed using a FACS Calibur (BD Biosciences) or sorted using a MoFlo MLS flow cytometer (DakoCytomation).
Mouse ES cells were cultured according to Li et al., (1995). ADE was induced under serum-containing conditions using a 2-step protocol. ES cells were seeded onto non-coated 10 cm petri dishes (Sterilin) at a density of 5×10^3 cells/ml in GMEM supplemented as described in Li et al., (1995) except in the absence of LIF. EBs were harvested after two days by centrifugation and replated in N2B27 medium (StemCellSciences) supplemented with 20 ng/ml activin A (R&D) and 20 ng/ml EGF (R&D). This media was replaced again two days later. 10 ng/ml BMP4, 20 ng/ml activin A (R&D) and 1×10^−5M all-trans retinoic acid (Sigma) were added where indicated.
(§2) FITC-conjugated rat anti-CD184 (Cxcr4), FITC-conjugated rat anti-CD31 and FITC conjugated rat anti-CD45 were purchased from BD Pharmingen. Cells were stained with Topro3-iodide (Invitrogen) to exclude dead cells from the analysis. Cells were analysed using a FACS Calibur (BD Biosciences) or sorted using a MoFlo MLS flow cytometer (DakoCytomation).

Hex^RS ES cells [2] = experiment: ADE (H+C+) induction, serum-free suspension (aggregation) culture, flow cytometry; assay type: cell-based
Procedure: For ADE induction under serum-free conditions in suspension culture, ES cells were seeded onto non-coated 10 cm Petri dishes at 5×10^3 cells/ml in N2B27 culture medium supplemented with 10 ng/ml Bmp4 and 20 ng/ml activin A. Following 2 days of culture the resulting EBs were harvested as above and replated on non-coated Petri dishes at the same density in SF03 culture medium (ref Tada 2005) supplemented with 20 ng/ml activin A and 20 ng/ml EGF. The media was replaced 2 days later and then every 3 days for the duration of the experiment. For some experiments 10 ng/ml Fgf4 (R&D), 10 ng/ml Bmp4, 20 ng/ml Activin A, 1×10^−5M all-trans retinoic acid, 100 ng/ml PD173074 (Sigma), 20 ng/ml EGF and 3 μM CHIR99021 were added to the culture at the indicated timepoints.
as §1, with “(DakoCytomation). […]” for “(DakoCytomation).”
FITC-conjugated rat anti-CD184 (Cxcr4), FITC-conjugated rat anti-CD31 and FITC conjugated rat anti-CD45 were purchased from BD Pharmingen. […] Cells were analysed using a FACS Calibur (BD Biosciences) or sorted using a MoFlo MLS flow cytometer (DakoCytomation).

Hex^RS ES cells [3] = experiment: ADE (H+C+) induction, serum-free adherent monolayer culture, flow cytometry, RT-PCR and immunostaining; assay type: cell-based; conditions: for ADE differentiation / ability to promote ADE formation: FIG. 25; for ADE differentiation: added to cultures for days 3-4 or days 3-7, PD173074 100 ng/ml, SU5402 25 μM; for ability to promote ADE formation: monolayer, FGFs at 10 ng/ml
Procedure: For ADE induction under serum-free conditions in adherent monolayer culture, ES cells were seeded onto gelatin coated 3 cm 6 well dishes (Iwaki) at a density of 1×10^4 cells/ml in N2B27 medium (StemCellSciences) supplemented with 10 ng/ml Bmp4, 20 ng/ml activin A and 10 ng/ml Fgf4. Following 2 days of culture the media was replaced with SF03 culture medium (Tada 2005) supplemented with 20 ng/ml activin A, 10 ng/ml Fgf4 and 20 ng/ml EGF. The media was replaced 2 days later and then every 3 days for the duration of the experiment. For some experiments 1×10^−5M all-trans retinoic acid, 100 ng/ml PD173074 and 3 μM CHIR99021 were added to the culture at the indicated timepoints.
as §1
Total RNA was prepared from a minimum of 1×10^4 cells from sorted cell fractions, EBs, monolayer differentiated cells or ES cells using Trizol reagent (Invitrogen). 1 μg of RNA was used as a template for cDNA synthesis using Superscript III (Invitrogen). Real-time RT-PCR was performed using a LightCycler 480 (Roche) and LightCycler 480 SYBR Green 1 Master (Roche). The following cycling conditions were used: denaturation: 95° C. 5 sec, amplification: 95° C. 5 sec, 58° C. 10 sec, 72° C. 20 sec (45 cycles), 81° C. 1 sec, melt: 95° C. 1 sec, 65° C. 10 sec, 95° C. −ramp 5 C per sec continuous, cool: […] 10 sec. Standard curves were generated from plasmid. Samples were normalized to β-actin or TATA-box binding protein (TBP) expression levels.
Sorted cells were seeded onto gelatin coated 24 well dishes (Iwaki). Adherence of cells to the substrate was enhanced by centrifugation at 1200 rpm for 3 mins. Sorted cells, monolayer differentiated cells and ES cells were washed in PBS, fixed in 4% paraformaldehyde for 10 mins and permeabilised by washing in PBS supplemented with 0.1% Triton X (PBST). Cells were treated with a blocking reagent (3% serum of same species as secondary antibody, 1% BSA in PBST) for 15 min before incubation with the primary antibody at 4° C. overnight. The cells were washed with PBST and incubated with the appropriate fluorescence-tagged secondary antibody for 2 hr at room temperature. The cells were washed with PBST and DAPI added during the final wash. The following primary antibodies were used, all are anti-mouse: anti-Oct3/4, anti-HNF-3β (Foxa2), anti-HNF-4α (Santa Cruz), anti-Cer11 (R&D), anti-E-cadherin (Takara Bio Inc) anti-alpha fetoprotein (NeoMarkers), anti-albumin (Bethyl laboratories inc). Anti-Pdx1 was a gift from P. Serup. […]
as §2

[4] = FGF signalling blocked for days 3-7
[5] = exogenous FGF4, defined monolayer culture (FIG. 22C, D)

## Cc1c[nH]c(-c2cnc(NCCNc3ccc(C#N)cn3)nc2-c2ccc(Cl)cc2Cl)n1 [CHIR99021]
Hex^RS ES cells [1]; addition at day 0-2, in the presence of serum
  induction of the H+C+ cell population: completely blocked
Hex^RS ES cells [2]; added during the first two days, serum-free, aggregation and monolayer (Table 7)
  total number of surviving cells at the end of the 7 day differentiation: significantly increased
Hex^RS ES cells [2]; serum-free differentiation (Table 7)
  total number of H+C+ cells produced: no or only very minor effects

## CCN(CC)CCCCNc1ncc2cc(-c3cc(OC)cc(OC)c3)c(NC(=O)NC(C)(C)C)nc2n1 [PD173074, reference compound]
Hex^RS ES cells [3]; [4]
  H+C+ and C+ populations: complete loss
  cell survival / viability: dramatically compromised
Hex^RS ES cells [3]
  ADE differentiation: inhibit ADE differentiation
Hex^RS ES cells [3]; inhibitor present for the entire protocol
  generation of C+ and H+C+ populations: unable to generate either population
Hex^RS ES cells [3]; inhibitor present for the first two days of differentiation, then removed
  number of C+ and H+C+ cells: reduced number

## Cc1c[nH]c(/C=C2\C(=O)Nc3ccccc32)c1CCC(=O)O [SU5402, reference compound]
Hex^RS ES cells [3]
  ADE differentiation: inhibit ADE differentiation

## CC1=C(/C=C/C(C)=C/C=C/C(C)=C/C(=O)O)C(C)(C)CCC1 [retinoic acid, all-trans retinoic acid, reference compound]
Hex^RS ES cells [1]; added either at day 0 or day 3 (Table 2)
  induction of the RS positive population: completely blocked
Hex^RS ES cells [1]; added either at day 0 or day 3, data not shown
  CXCR4 induction: without effecting

## FGF2: fibroblast growth factor, 10 ng/ml
Hex^RS ES cells [3]
  ability to promote ADE formation: have the ability to promote ADE formation

B1: FGF4: fibroblast growth factor, 10 ng/ml (R&D) (protein, UniProt P08620 31-206, looked up)
Fibroblast growth factor 4: APTAPNGTLEAELERRWESLVALSLARLPVAAQPKEAAVQSGAGDYLLGIKRLRRLYCNVGIGFHLQALPDGRIGGAHADTRDSLLELSPVERGVVSIFGVASRFFVAMSSKGKLYGSPFFTDECTFKEILLPNNYNAYESYKYPGMFIALSKNGKTKKGNRVSPTMKVTHFLPRL
Hex^RS ES cells [3]; FIG. 22E, FGF4 added solely during the second phase of differentiation
  H+C+ ADE: up to 20%
Hex^RS ES cells [3]
  ability to promote ADE formation: have the ability to promote ADE formation
Hex^RS ES cells [3]; addition of Fgf4, monolayer
  number of CXCR4 expressing cells: did not increase
Hex^RS ES cells [3]; [5]
  anterior markers Cer1 and Gsc: induction
  expression of Foxa2 and Sox17: increased
Hex^RS ES cells [3]; exogenous FGF4, defined monolayer culture (FIG. 22D)
  mesodermal and primitive streak gene expression: suppressing
Hex^RS ES cells [3]; monolayer cultures, inclusion in the differentiation protocol
  H+C+ cell number: doubled

B2: FGF5: fibroblast growth factor, 10 ng/ml (protein, UniProt P12034 21-268, looked up)
Fibroblast growth factor 5: HGEKRLAPKGQPGPAATDRNPRGSSSRQSSSSAMSSSSASSSPAASLGSQGSGLEQSSFQWSPSGRRTGSLYCRVGIGFHLQIYPDGKVNGSHEANMLSVLEIFAVSQGIVGIRGVFSNKFLAMSKKGKLHASAKFTDDCKFRERFQENSYNTYASAIHRTEKTGREWYVALNKRGKAKRGCSPRVKPQHISTHFLPRFKQSEQPELSFTVTVPEKKKPPSPIKPKIPLSAPRKNTNSVKYRLKFRFG
Hex^RS ES cells [3]
  ability to promote ADE formation: not

B3: FGF10: fibroblast growth factor, 10 ng/ml (protein, UniProt O15520 38-208, looked up)
Fibroblast growth factor 10: QALGQDMVSPEATNSSSSSFSSPSSAGRHVRSYNHLQGDVRWRKLFSFTKYFLKIEKNGKVSGTKKENCPYSILEITSVEIGVVAVKAINSNYYLAMNKKGKLYGSKEFNNDCKLKERIEENGYNTYASFNWQHNGRQMYVALNGKGAPRRGQKTRRKNTSAHFLPMVVHS
Hex^RS ES cells [3]
  ability to promote ADE formation: not

B4: activin: secreted TGFβ ligand, activin A (R&D), 20 ng/ml (protein, UniProt P08476 311-426, looked up)
Inhibin beta A chain: GLECDGKVNICCKKQFFVSFKDIGWNDWIIAPSGYHANYCEGECPSHIAGTSGSSLSFHSTVINHYRMRGHSPFANLKSCCVPTKLRPMSMLYYDDGQNIIKKDIQNMIVEECGCS
modifications: Inhibin beta A chain
Hex^RS ES cells [1]; day 7, serum containing media 48 hr, then serum free media supplemented with activin 5 days
  cells RS positive: 6.8-8.6%
